IC50 data for 24 compounds are collected here from patent US10710994B2, “Oxadiazole transient receptor potential channel inhibitors” (Genentech, Inc., priority 2018, dated 2020).

The assay deals with human TRPA1 channel (Homo sapiens (Human), UniProt O75762). Put plainly: hTRPA1 CHO Ca2+ FLIPR Tetra assay: block of cinnamaldehyde induced calcium influx. It is filed as cell-based. The settings on record: CHO cells expressing TRPA1, Hill coefficient fixed to 1.5. The protocol: CHO cells expressing TRPA1 were plated into 384-well plates, incubated overnight at 37° C., and loaded with BD calcium indicator dye for 1 hr at 37° C. followed by 15 minutes at room temperature. The assay buffer was Hank's Balanced Salt Solution (HBSS) containing 20 mM HEPES (pH readjusted to 7.4) along with 0.02% BSA.
Sequence of human TRPA1 channel (O75762 whole entry): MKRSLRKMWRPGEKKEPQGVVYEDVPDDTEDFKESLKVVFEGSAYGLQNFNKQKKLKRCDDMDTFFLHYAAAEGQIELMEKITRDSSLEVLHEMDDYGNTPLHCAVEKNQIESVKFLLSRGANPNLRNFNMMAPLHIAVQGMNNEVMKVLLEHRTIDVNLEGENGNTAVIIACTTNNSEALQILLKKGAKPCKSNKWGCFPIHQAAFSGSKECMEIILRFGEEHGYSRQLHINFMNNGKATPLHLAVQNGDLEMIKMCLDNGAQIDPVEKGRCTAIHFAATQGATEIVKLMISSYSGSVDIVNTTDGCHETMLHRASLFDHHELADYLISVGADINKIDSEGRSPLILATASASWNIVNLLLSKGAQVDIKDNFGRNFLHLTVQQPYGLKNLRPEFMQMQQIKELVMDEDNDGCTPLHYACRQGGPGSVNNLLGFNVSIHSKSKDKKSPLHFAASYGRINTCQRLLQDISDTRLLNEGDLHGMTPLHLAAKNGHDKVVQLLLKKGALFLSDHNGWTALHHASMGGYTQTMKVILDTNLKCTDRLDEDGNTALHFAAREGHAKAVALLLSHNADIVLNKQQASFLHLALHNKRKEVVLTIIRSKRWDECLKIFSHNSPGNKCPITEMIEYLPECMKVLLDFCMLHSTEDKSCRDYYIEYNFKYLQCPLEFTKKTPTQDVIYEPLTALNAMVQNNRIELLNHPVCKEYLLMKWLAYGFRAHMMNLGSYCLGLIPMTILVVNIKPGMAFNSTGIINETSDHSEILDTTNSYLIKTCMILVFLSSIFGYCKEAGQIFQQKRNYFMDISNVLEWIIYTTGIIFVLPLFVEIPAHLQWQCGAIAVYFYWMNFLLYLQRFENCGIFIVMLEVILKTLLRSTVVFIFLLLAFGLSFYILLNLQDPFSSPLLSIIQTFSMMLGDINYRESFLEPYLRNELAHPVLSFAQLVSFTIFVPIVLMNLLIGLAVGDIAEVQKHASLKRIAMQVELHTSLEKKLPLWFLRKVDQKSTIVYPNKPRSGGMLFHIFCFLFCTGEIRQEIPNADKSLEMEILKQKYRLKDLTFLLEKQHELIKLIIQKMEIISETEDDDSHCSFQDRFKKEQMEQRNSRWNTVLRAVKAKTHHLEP
Following dye load and plate cool down, compounds were added to the cells using FLIPR Tetra. Plates were then incubated with compounds for 10 minutes or 90 minutes at room temperature prior to adding agonist. Following this incubation, about an EC80 concentration of cinnamaldehyde […] was added to active the channels and block of cinnamaldehyde induced calcium influx was measured.
Fixing the Hill coefficient will generally reduce variability of the IC50 determination. The IC50 results were individually examined to make sure the MIN and MAX points were set correctly prior to validation of the results.

Setting [1] is: read-out: hTRPA1 IC50 10 min, 10 minutes incubation with compound before cinnamaldehyde (about EC80).
Where [2] appears, read: read-out: hTRPA1 IC50 90 min, 90 minutes incubation with compound before cinnamaldehyde (about EC80).

Each structure is given as a SMILES string. Where two headings read alike, the source gives them in different places.

For `Cn1c(N)nc2ncn(Cc3nc([C@@H]4CO[C@@H](c5ccc(F)cc5)C4)no3)c(=O)c21` [Example 22, 8-amino-1-((3-((3R,5R)-5-(4-fluorophenyl)tetrahydro-furan-3-yl)-1,2,4-oxadiazol-5-yl)methyl)-7-methyl-1,7-dihydro-6H-purin-6-one], the IC50 (commonly the point on the concentration scale where inhibition reaches its midpoint) by setting is: under setting [1], 126 nM; under setting [2], 19 nM.

For the compound `Cn1cnc2c(C#N)nn(Cc3nc([C@@H]4CO[C@@H](c5ccc(Cl)cc5)C4)no3)c2c1=O` [Example 23, 1-((3-((3R,5R)-5-(4-chlorophenyl)tetrahydro-furan-3-yl)-1,2,4-oxadiazol-5-yl)methyl)-6-methyl-7-oxo-6,7-dihydro-1H-pyrazolo[4,3-d]pyrimidine-3-carbonitrile], the concentration for half-maximal inhibition (IC50) is, setting by setting: under setting [1], 45.7 nM; under setting [2], 24 nM.

As to `O=c1c2cccnc2cnn1Cc1nc([C@@H]2CO[C@@H](c3ccc(Cl)cc3)C2)no1` [Example 24, 6-((3-((3R,5R)-5-(4-chlorophenyl)tetrahydro-furan-3-yl)-1,2,4-oxadiazol-5-yl)methyl)pyrido[2,3-d]pyridazin-5(6H)-one], the IC50 was determined as 7.2 nM under setting [1] and 4.9 nM under setting [2].

As to `O=c1c2cccnc2ncn1Cc1nc([C@@H]2CO[C@@H](c3ccc(Cl)cc3)C2)no1` [Example 25, 3-((3-((3R,5R)-5-(4-chlorophenyl)tetrahydro-furan-3-yl)-1,2,4-oxadiazol-5-yl)methyl)pyrido[2,3-d]pyrimidin-4(3H)-one], the concentration for half-maximal inhibition (IC50) reads like this: under setting [1], 6.55 nM; under setting [2], 5.7 nM.

With `Cn1c(N)nc2ncn(Cc3nc([C@@H]4CO[C@@H](c5ccc(Cl)cc5)C4)no3)c(=O)c21` [Example 26, 8-amino-1-((3-((3R,5R)-5-(4-chlorophenyl)tetrahydro-furan-3-yl)-1,2,4-oxadiazol-5-yl)methyl)-7-methyl-1,7-dihydro-6H-purin-6-one], the IC50 came out at 58.7 nM under setting [1] and 9.7 nM under setting [2].

As to `Cc1ccc([C@H]2C[C@H](c3noc(Cn4cnc5ncn(C)c5c4=O)n3)CO2)cc1` [Example 27, 7-methyl-1-((3-((3R,5R)-5-(p-tolyl)tetrahydrofuran-3-yl)-1,2,4-oxadiazol-5-yl)methyl)-1,7-dihydro-6H-purin-6-one], the IC50 is, setting by setting: under setting [1], 16.1 nM; under setting [2], 5.7 nM.

In the case of `Nc1ccc2c(=O)n(Cc3nc([C@@H]4CO[C@@H](c5ccc(Cl)cc5)C4)no3)cnc2n1` [Example 28, 7-amino-3-((3-((3R,5R)-5-(4-chlorophenyl)tetrahydro-furan-3-yl)-1,2,4-oxadiazol-5-yl)methyl)pyrido[2,3-d]pyrimidin-4(3H)-one], the IC50 runs as follows: under setting [1], 6.32 nM; under setting [2], 3.9 nM.

In the case of `Cn1cnc2ncn(Cc3nc([C@@H]4CO[C@@H](c5ccc(Br)cc5)C4)no3)c(=O)c21` [Example 29, 1-((3-((3R,5R)-5-(4-bromophenyl)tetra-hydrofuran-3-yl)-1,2,4-oxadiazol-5-yl)methyl)-7-methyl-1,7-dihydro-6H-purin-6-one], the IC50 under setting [1] was found to be 7.83 nM and the IC50 under setting [2] worked out at 1.8 nM.

`Cn1cnc2ncn(Cc3nc([C@@H]4CO[C@@H](c5ccc(-c6ccccc6)cc5)C4)no3)c(=O)c21` [Example 30, 1-((3-((3R,5R)-5-[(1,1′-biphenyl]-4-yl)tetrahydrofuran-3-yl)-1,2,4-oxadiazol-5-yl)methyl)-7-methyl-1,7-dihydro-6H-purin-6-one]: the IC50 is, setting by setting: under setting [1], 623 nM; under setting [2], 370 nM.

Take `Cn1cnc2ncn(Cc3nc([C@@H]4CO[C@@H](c5ccc(Cl)c(Cl)c5)C4)no3)c(=O)c21` [Example 31, 1-((3-((3R,5R)-5-(3,4-dichlorophenyl)tetra-hydrofuran-3-yl)-1,2,4-oxadiazol-5-yl)methyl)-7-methyl-1,7-dihydro-6H-purin-6-one]: the IC50 runs as follows: under setting [1], 19.7 nM; under setting [2], 7.8 nM.

Turning to `Cn1cnc2ncn(Cc3nc([C@@H]4CO[C@@H](c5ccc(Cl)c(F)c5)C4)no3)c(=O)c21` [Example 32, 1-((3-((3R,5R)-5-(4-chloro-3-fluorophenyl)tetrahydro-furan-3-yl)-1,2,4-oxadiazol-5-yl)methyl)-7-methyl-1,7-dihydro-6H-purin-6-one], the IC50 reads like this: under setting [1], 7.88 nM; under setting [2], 2 nM.

With `Cn1cnc2ncn(Cc3nc([C@@H]4CO[C@@H](c5ccc6ccccc6c5)C4)no3)c(=O)c21` [Example 33, 7-methyl-1-((3-((3R,5R)-5-(naphthalen-2-yl)tetrahydrofuran-3-yl)-1,2,4-oxadiazol-5-yl)methyl)-1,7-dihydro-6H-purin-6-one], the IC50 is, setting by setting: under setting [1], 4.09 nM; under setting [2], 2.4 nM.

`Cn1cnc2ncn(Cc3nc([C@@H]4CO[C@@H](c5cc(F)cc(F)c5)C4)no3)c(=O)c21` [Example 34, 1-((3-((3R,5R)-5-(3,5-difluorophenyl)tetra-hydrofuran-3-yl)-1,2,4-oxadiazol-5-yl)methyl)-7-methyl-1,7-dihydro-6H-purin-6-one]: the half-inhibitory concentration (IC50) is, setting by setting: under setting [1], 63.5 nM; under setting [2], 28 nM.

As to `Cn1cnc2ncn(Cc3nc([C@@H]4CO[C@@H](c5ccc(F)c(Cl)c5)C4)no3)c(=O)c21` [Example 35, 1-((3-((3R,5R)-5-(3-chloro-4-fluorophenyl)tetrahydro-furan-3-yl)-1,2,4-oxadiazol-5-yl)methyl)-7-methyl-1,7-dihydro-6H-purin-6-one], the concentration for half-maximal inhibition (IC50) was found to be 16.4 nM under setting [1] and 3.6 nM under setting [2].

Consider `Cn1cnc2ncn(Cc3nc([C@@H]4CO[C@@H](c5ccc(C#N)cc5)C4)no3)c(=O)c21` [Example 37, 4-((2R,4R)-4-(5-((7-methyl-6-oxo-6,7-dihydro-1H-purin-1-yl)methyl)-1,2,4-oxadiazol-3-yl)tetrahydrofuran-2-yl)benzonitrile], for which the IC50 under setting [1] was 108 nM and the IC50 under setting [2] is 52 nM.

For the compound `Cn1cnc2ncn(Cc3nc([C@@H]4CO[C@@H](c5ccc(C(F)(F)F)cc5)C4)no3)c(=O)c21` [Example 38, 7-methyl-1-((3-((3R,5R)-5-(4-(trifluoromethyl)phenyl)tetrahydrofuran-3-yl)-1,2,4-oxadiazol-5-yl)methyl)-1,7-dihydro-6H-purin-6-one], the IC50 reads like this: under setting [1], 46.4 nM; under setting [2], 29 nM.

As to `Cn1cnc2ccn(Cc3nc([C@@H]4CO[C@@H](c5ccc(Cl)cc5)C4)no3)c(=O)c21` [Example 39, 5-((3-((3R,5R)-5-(4-chlorophenyl)tetrahydro-furan-3-yl)-1,2,4-oxadiazol-5-yl)methyl)-3-methyl-3,5-dihydro-4H-imidazo[4,5-c]pyridin-4-one], the IC50 reads like this: under setting [1], 3.06 nM; under setting [2], 0.42 nM.

For the compound `Cn1cnc2ncn(Cc3nc([C@@H]4CO[C@@H](c5cc(F)c(F)c(F)c5)C4)no3)c(=O)c21` [Example 40, 7-methyl-1-((3-((3R,5R)-5-(3,4,5-trifluorophenyl)tetrahydrofuran-3-yl)-1,2,4-oxadiazol-5-yl)methyl)-1,7-dihydro-6H-purin-6-one], the IC50 turned out to be 27.6 nM under setting [1] and 11 nM under setting [2].

Take `Cn1cnc2ncn(Cc3nc([C@@H]4CO[C@@H](c5ccc(Cl)cn5)C4)no3)c(=O)c21` [Example 41, 1-((3-((3R,5R)-5-(5-chloropyridin-2-yl)tetrahydrofuran-3-yl)-1,2,4-oxadiazol-5-yl)methyl)-7-methyl-1,7-dihydro-6H-purin-6-one]: the IC50 amounted to 190 nM under setting [1] and 170 nM under setting [2].

On to `Cn1cnc2ncn(Cc3nc([C@@H]4CO[C@@](C)(c5ccc(Cl)cc5)C4)no3)c(=O)c21` [Example 42, 1-((3-((3R,5R)-5-(4-chlorophenyl)-5-methyltetrahydrofuran-3-yl)-1,2,4-oxadiazol-5-yl)methyl)-7-methyl-1,7-dihydro-6H-purin-6-one], for which the IC50 runs as follows: under setting [1], 3710 nM; under setting [2], 2200 nM.

In the case of `Cn1cnc2ncn(Cc3nc([C@@H]4CO[C@@]5(Cc6ccccc65)C4)no3)c(=O)c21` [Example 43, 1-((3-((4′R,7R)-4′,5′-dihydro-3′H-spiro[bicyclo[4.2.0]octane-7,2′-furan]-1(6),2,4-trien-4′-yl)-1,2,4-oxadiazol-5-yl)methyl)-7-methyl-1,7-dihydro-6H-purin-6-one], the IC50 reads like this: under setting [1], 278 nM; under setting [2], 140 nM.

For `Cc1cncc2ncn(Cc3nc([C@@H]4CO[C@@H](c5ccc(Cl)cc5)C4)no3)c(=O)c12` [Example 44, 3-((3-((3R,5R)-5-(4-chlorophenyl)tetrahydro-furan-3-yl)-1,2,4-oxadiazol-5-yl)methyl)-5-methylpyrido[3,4-d]pyrimidin-4(3H)-one], the IC50 was 3.2 nM under setting [1] and 1.3 nM under setting [2].

Consider `O=c1c2ccncc2ncn1Cc1nc([C@@H]2CO[C@@H](c3ccc(Cl)cc3)C2)no1` [Example 45, 3-((3-((3R,5R)-5-(4-chlorophenyl)tetrahydro-furan-3-yl)-1,2,4-oxadiazol-5-yl)methyl)pyrido[3,4-d] pyrimidin-4(3H)-one], for which the half-maximal inhibitory concentration (IC50) reads like this: under setting [1], 19.3 nM; under setting [2], 7.8 nM.

As for `Cn1c(=O)ccc2ncn(Cc3nc([C@@H]4CO[C@@H](c5ccc(Cl)cc5)C4)no3)c(=O)c21` [Example 46, 3-((3-((3R,5R)-5-(4-chlorophenyl)tetra-hydrofuran-3-yl)-1,2,4-oxadiazol-5-yl)methyl)-5-methyl-3,5-dihydropyrido[3,2-d] pyrimidine-4,6-dione], the IC50 by setting is: under setting [1], 14.5 nM; under setting [2], 14 nM.
